Results reported in US8796323B2, “Defensin-like molecules as novel antimicrobial agents” (University of Maryland, Baltimore, priority 2010, dated 2014).

Test system: Staphylococcus aureus ATCC 29213
Assay: 96-well turbidimetric antibacterial activity assay of HNP1, with or without Lipid II synthesis inhibitors
Format: cell-based
Description: The antibacterial activity of HNP1 against Staphylococcus aureus ATCC 29213 was carried out in a 96-well turbidimetric assay essentially as described in Ericksen, B., et al., 2005, “Antibacterial activity and specificity of the six human {alpha}-defensins.” Lipid II levels in S. aureus were manipulated by the addition of three different inhibitors of cell wall synthesis: bacitracin (250 μg/ml), D-cycloserine (64 μg/ml) and fosfomycine (250 μg/ml). Bacterial cultures were pretreated with these compounds for 30 min under shaking at 37° C. […] Bacterial growth was monitored for 12 hours and data were analyzed as described.
To examine whether the observed interaction between HNP1 and Lipid II is functionally relevant in the environment of the membrane, the inventors determined the ability of HNP1 to kill S. aureus with altered levels of Lipid II. Three different inhibitors of cell wall synthesis, fosfomycine, D-cycloserine, and bacitracin, were used to reduce the lipid II levels in S. aureus cells. Bacitracin binds directly to undecaprenyl pyrophosphate, the portion of lipid II that remains in the membrane once GlcNAc-MurNAc is polymerized, and prevents its use in subsequent cycles of lipid II synthesis. Fosfomycine is an inhibitor of MurA, the enzyme responsible for the first step in peptidoglycan synthesis. D-Cycloserine inhibits both alanine racemase and D-Ala-D-Ala ligase, two enzymes required for the synthesis of the D-Ala-D-Ala dipeptide of lipid II. All three inhibitors thus block the synthesis of lipid II (Lunde, C. S., et al., 2009, “Telavancin disrupts the functional integrity of the bacterial membrane through targeted interaction with the cell wall precursor lipid II,” Antimicrob Agents Chemother 53:3375-3383.) S. aureus cells were exposed to each of the Lipid II synthesis inhibitors for 30 min and subsequently exposed to HNP1 at concentrations ranging from 256 to 1 μg/ml for 15 min (FIG. 4).
Survival curves of S. aureus ATCC 29213 exposed to HNP1 at concentrations varying two-fold from 1 to 256 μg/ml. […] Points scored as zero survival could not be plotted.

Substance: HNP1: α-defensin Human Neutrophil Peptide 1, chemically synthesized and folded
- killing of S. aureus (15 min exposure to HNP1): efficiently killed S. aureus
- killing of S. aureus by HNP-1 after pre-treatment with Lipid II synthesis inhibitors, 2 hours exposure (HNP-1 exposure 2 hours, data not shown): no difference in bacterial killing
- killing of S. aureus by HNP1 after pre-treatment with Lipid II synthesis inhibitors (fosfomycine, D-cycloserine, bacitracin 30 min pre-treatment, HNP1 15 min): attenuated killing of S. aureus by HNP1 markedly
